Calls of active or inactive are those of the source. No cut-off for these calls is given here.
Experiments:
[1] = target: Receptor-interacting serine/threonine-protein kinase 3 (Homo sapiens, UniProt Q9Y572); assay: Inhibition of RIPK3 (unknown origin) in HEK-293 cells assessed as necroptic cell death at 10 uM by cell-based assay; settings: HEK293
Intestinal mucosa [2] = assay: Inhibition of IL6 production in intestinal mucosa derived from Crohn's disease patient measured after 24 hrs by sandwich ELISA; format: functional, tissue-based; settings: Homo sapiens
[3] = target: T1, Toll-like receptor 7 (Homo sapiens) (UniProt Q9NYK1); assay: Activation of TLR7 receptor in human monocytes assessed as inhibition of gardiquimod-stimulated IL8 production preincubated for 30 mins prior to gardiquimod stimulation at 1 uM measured after 6 hrs by immunoassay; format: cell-based
T1 sequence (whole entry): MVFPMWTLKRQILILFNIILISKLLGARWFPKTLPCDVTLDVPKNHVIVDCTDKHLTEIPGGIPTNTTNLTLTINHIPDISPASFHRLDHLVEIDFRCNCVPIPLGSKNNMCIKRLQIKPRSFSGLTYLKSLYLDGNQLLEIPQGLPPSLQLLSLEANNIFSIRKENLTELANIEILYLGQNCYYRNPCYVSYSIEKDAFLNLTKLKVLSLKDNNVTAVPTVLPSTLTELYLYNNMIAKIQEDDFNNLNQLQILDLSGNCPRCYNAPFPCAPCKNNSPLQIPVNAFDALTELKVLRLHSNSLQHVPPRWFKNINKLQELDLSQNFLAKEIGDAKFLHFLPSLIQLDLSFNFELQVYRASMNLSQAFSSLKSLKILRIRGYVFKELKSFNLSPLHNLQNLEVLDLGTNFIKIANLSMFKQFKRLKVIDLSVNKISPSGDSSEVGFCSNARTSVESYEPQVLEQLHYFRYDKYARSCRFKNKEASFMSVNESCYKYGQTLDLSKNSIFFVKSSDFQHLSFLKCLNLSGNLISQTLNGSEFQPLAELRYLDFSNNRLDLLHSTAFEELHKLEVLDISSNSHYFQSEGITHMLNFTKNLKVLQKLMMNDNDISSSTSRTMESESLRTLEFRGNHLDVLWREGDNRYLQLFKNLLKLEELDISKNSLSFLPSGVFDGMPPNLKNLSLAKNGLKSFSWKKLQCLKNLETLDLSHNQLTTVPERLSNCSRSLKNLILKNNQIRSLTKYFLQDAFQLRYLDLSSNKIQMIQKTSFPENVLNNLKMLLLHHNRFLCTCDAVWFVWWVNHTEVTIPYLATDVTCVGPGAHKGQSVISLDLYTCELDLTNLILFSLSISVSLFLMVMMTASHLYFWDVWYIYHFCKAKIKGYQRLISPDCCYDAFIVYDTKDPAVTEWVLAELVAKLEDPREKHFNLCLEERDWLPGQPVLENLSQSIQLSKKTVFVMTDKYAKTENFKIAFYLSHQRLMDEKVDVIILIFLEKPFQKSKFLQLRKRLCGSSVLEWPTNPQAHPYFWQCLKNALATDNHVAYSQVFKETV

[4] = Clearance in Sprague-Dawley rat at 2 mg/kg, po or 1 mg/kg, iv by LC-MS/MS analysis; format: ADME, organism-based; settings: in vivo
[5] = target: T2, Aurora kinase A (Homo sapiens) (UniProt O14965); assay: Inhibition of human full length N-terminal GST-tagged aurora-a expressed in baculovirus expression system at 1 uM
T2 sequence (whole entry): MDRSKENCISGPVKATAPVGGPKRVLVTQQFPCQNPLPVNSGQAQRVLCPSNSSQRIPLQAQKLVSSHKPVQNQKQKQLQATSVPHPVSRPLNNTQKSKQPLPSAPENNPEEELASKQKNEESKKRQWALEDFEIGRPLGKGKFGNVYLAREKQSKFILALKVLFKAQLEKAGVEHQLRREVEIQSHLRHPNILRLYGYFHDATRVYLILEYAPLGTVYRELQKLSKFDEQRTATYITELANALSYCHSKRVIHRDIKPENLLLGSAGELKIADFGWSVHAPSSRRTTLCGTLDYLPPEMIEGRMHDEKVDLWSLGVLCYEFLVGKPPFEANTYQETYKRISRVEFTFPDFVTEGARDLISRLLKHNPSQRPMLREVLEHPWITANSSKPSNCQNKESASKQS

[6] = Cmax in Sprague-Dawley rat at 2 mg/kg, po administered through cassette dosing as by LC-MS/MS analysis; format: ADME, organism-based; parameters: dose 2 mg/kg, route oral; settings: in vivo
[7] = target: T3, Interleukin-1 receptor type 1 (Homo sapiens) (UniProt P14778); assay: Activation of IL-1R in human monocytes assessed as inhibition of IL-1beta-stimulated TNF-alpha production preincubated for 30 mins prior to IL-1beta stimulation at 1 uM measured after 6 hrs by immunoassay; format: cell-based
T3 sequence (whole entry): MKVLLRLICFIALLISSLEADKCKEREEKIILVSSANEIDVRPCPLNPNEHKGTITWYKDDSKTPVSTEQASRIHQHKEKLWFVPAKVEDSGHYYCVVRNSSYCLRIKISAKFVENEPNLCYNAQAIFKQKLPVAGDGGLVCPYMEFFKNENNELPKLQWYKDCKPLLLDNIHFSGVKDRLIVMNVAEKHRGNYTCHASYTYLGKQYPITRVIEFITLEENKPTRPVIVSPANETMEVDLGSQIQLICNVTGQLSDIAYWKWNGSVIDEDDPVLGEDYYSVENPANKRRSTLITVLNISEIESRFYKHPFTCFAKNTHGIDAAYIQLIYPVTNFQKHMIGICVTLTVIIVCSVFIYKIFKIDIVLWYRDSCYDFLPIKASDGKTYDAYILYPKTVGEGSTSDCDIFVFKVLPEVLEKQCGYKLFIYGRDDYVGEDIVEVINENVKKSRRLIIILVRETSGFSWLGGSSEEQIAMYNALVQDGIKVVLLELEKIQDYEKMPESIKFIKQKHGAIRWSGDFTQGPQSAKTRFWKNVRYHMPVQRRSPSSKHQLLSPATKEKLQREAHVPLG

[8] = Volume of distribution at steady state in Sprague-Dawley rat at 2 mg/kg, po or 1 mg/kg, iv by LC-MS/MS analysis; format: ADME, organism-based; settings: in vivo, read-out: Vdss
[9] = target: Mitogen-activated protein kinase 14 (Homo sapiens, UniProt Q16539)
[10] = Half life in C57BL/6 mouse at 2 mg/kg, po or 1 mg/kg, iv by LC-MS/MS analysis; format: ADME, organism-based; settings: in vivo
[11] = target: Toll-like receptor 4 (Homo sapiens) (UniProt O00206); assay: Activation of TLR4 receptor in human monocytes assessed as inhibition of LPS-stimulated TNF-alpha production preincubated for 30 mins prior to LPS stimulation at 1 uM measured after 6 hrs by immunoassay; format: cell-based
Homo sapiens = species on record: Homo sapiens; assay: Activation of TFNR in human monocytes assessed as inhibition of TNF-alpha-stimulated IL8 production preincubated for 30 mins prior to TNF-alpha stimulation at 1 uM measured after 6 hrs by immunoassay; format: cell-based
Intestinal mucosa [12] = assay: Inhibition of TNFalpha production in intestinal mucosa derived from Crohn's disease patient measured after 24 hrs by sandwich ELISA; format: functional, tissue-based; settings: Homo sapiens

Chain of Receptor-interacting serine/threonine-protein kinase 3 (Q9Y572 whole entry, looked up): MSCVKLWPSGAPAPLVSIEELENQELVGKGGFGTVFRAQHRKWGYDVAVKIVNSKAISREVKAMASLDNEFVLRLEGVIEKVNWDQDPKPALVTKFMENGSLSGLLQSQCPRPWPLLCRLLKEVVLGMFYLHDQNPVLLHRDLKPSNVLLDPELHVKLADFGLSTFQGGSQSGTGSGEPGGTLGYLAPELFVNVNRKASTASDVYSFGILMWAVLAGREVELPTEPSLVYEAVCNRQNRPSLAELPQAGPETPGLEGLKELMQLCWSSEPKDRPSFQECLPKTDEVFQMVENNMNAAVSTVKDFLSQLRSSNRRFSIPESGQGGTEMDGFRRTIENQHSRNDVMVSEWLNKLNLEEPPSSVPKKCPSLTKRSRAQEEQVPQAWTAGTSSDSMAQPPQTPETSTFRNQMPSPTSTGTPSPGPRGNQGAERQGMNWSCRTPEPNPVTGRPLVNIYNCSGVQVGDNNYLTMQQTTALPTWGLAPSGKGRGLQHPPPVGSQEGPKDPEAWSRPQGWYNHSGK
Chain of Toll-like receptor 4 (Homo sapiens) (O00206 whole entry): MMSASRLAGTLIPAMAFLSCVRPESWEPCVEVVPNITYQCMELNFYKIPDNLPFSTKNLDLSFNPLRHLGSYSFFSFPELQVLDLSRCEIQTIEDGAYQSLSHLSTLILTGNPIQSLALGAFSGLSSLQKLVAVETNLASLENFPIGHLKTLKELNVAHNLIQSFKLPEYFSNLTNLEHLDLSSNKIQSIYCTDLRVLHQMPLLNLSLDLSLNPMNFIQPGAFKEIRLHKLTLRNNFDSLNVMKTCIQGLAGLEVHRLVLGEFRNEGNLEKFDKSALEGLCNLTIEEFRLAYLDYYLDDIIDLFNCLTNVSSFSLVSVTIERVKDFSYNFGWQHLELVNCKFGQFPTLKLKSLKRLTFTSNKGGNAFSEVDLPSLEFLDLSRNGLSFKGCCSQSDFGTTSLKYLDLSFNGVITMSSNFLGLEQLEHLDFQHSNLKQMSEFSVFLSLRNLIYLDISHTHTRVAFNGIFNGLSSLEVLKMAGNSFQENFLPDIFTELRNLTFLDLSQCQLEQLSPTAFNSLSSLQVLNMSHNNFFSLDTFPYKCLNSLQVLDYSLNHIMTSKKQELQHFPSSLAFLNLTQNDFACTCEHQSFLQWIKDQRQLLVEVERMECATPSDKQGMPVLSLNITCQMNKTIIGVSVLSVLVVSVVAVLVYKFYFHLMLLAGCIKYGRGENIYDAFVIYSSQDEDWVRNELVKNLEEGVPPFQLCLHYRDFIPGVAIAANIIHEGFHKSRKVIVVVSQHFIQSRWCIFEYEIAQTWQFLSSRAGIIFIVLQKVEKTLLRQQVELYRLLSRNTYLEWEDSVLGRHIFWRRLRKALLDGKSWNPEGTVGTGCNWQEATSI
Chain of Mitogen-activated protein kinase 14 (Q16539 whole entry): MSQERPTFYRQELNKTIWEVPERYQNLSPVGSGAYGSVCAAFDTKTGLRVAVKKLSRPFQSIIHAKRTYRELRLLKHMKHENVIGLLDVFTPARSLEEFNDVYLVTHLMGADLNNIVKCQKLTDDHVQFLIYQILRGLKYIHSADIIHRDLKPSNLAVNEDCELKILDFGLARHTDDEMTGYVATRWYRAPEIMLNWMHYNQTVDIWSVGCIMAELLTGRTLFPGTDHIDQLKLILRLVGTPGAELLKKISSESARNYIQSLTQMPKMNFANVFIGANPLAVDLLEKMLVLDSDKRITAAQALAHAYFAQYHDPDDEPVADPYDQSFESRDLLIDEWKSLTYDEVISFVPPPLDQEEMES

CC(C)(C)S(=O)(=O)c1ccc2nccc(Nc3n[nH]c4ccc(F)cc34)c2c1
inhibition [1]: inactive | inhibition (Intestinal mucosa [2]): Dose-dependent effect | inhibition [3]: Active | clearance [4]: 15 mL/min/kg | inhibition [5]: 30% | Cmax [6]: 260 ng/mL | inhibition [7]: Active | Vd [8]: 2 L/kg | IC50 [9]: 5.12 µM | half-life [10]: 126 min | inhibition [11]: Active | inhibition (Homo sapiens): Active | inhibition (Intestinal mucosa [12]): Dose-dependent effect
